Results taken from US11013726B2 (Arbutus Biopharma Corporation, priority 2016, dated 2021).
pEC50: −log10 of the molar value.

Experiments:
HBsAg [1] = assay: In vitro combination study, HBsAg CLIA, MacSynergy II; type: cell-based, hepatitis B virus
Experimental: In vitro combination studies were conducted using the method of Prichard & Shipman, 1990, Antiviral Res. 14(4-5):181-205, and Prichard, et al., MacSynergy II). The HepG2.2.15 cell culture system is a cell line derived from human hepatoblastoma HepG2 cells, that have been stably transfected with the adw2-subtype HBV genome (Sells, et al., 1987, Proc. Natl. Acad. Sci. U.S.A 84:1005-1009). HepG2.2.15 cells secrete Dane-like viral particles, produce HBV DNA, and produce the viral proteins, HBeAg and HBsAg.
Non-limiting examples of HBV RNA destabilizers are Compound A and Compound B. The EC50 values of these agents are shown in Table 12. Although inhibition of HBV DNA, RNA and proteins can be determined in the presence of the compounds of the invention and LNPs (both referred to herein as “agents”), the assay that can quantitatively measure the level of HBsAg was used in this study. To test the agent combinations, HepG2.2.15 (30,000 cells/well) were plated in 96 well tissue-culture treated microtiter plates in DMEM+L-Glutamine medium supplemented with 1% penicillin-streptomycin, 20 μg/mL geneticin (G418), 10% fetal bovine serum, and incubated in a humidified incubator at 37° C. and 5% CO2 overnight. The next day, the cells were replenished with fresh medium followed by the addition of compound of the invention (dissolved in 100% DMSO), and LNP (dissolved in 100% RPMI medium). The agents were added to cells in a checkerboard fashion. The microtiter cell plates were incubated for a total duration of 6 days in a humidified incubator at 37° C. and 5% CO2. On the 3rd day of incubation, the cells were replenished with fresh medium and agents. The serial dilutions spanned concentration ranges respective to the EC50 value of each agent, with the final DMSO concentration of the assay being 0.5%. In addition to combination testing of the agents in a checkerboard fashion, the compound and LNP were also tested alone.
Untreated positive control samples (0.5% DMSO in media) were included on each plate in multiple wells. Following a 6 day-incubation, media was removed from treated cells for use in an HBsAg chemiluminescence immunoassay (CLIA) (Autobio Diagnostics, Cat No. CL0310-2). An HBsAg standard curve was generated to verify that the levels of HBsAg quantification were within the detection limits of the assay. The remaining inhibitor-treated cells were assessed for cytotoxicity by determination of the intracellular adenosine triphosphate (ATP) using a Cell-Titer Glo reagent (Promega) as per manufacturers instructions and by microscopic analysis of the cells throughout the duration of inhibitor treatment. Cell viability was calculated as a percentage of the untreated positive control wells.
The plates were read using an EnVision multimode plate reader (PerkinElmer Model 2104). […] The RLU data from the single agent treated cells were analyzed using XL-Fit module in Microsoft Excel to determine EC50 values using a 4-parameter curve fitting algorithm.

HBsAg [2] = assay: HBsAg assay; type: cell-based, hepatitis B virus; settings: Hepatitis B virus, HepG2.2.15, 144 h, read-out: sAg EC50, μM, HepG2.2.15 cells, day 6
Summary of the method: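 HepG2.2.15 cells were treated with serially diluted compounds (0.5% DMSO), with medium and compound renewed after 2-3 days. Secreted HBsAg measured at day 6 by chemiluminescence immunoassay; EC50 from dose-response curves. Viability assessed in parallel by CellTiter-Glo.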

[3] = Compound A 0.0001 μM, LNP-1 0.0025, 0.00079, 0.00025, 7.9E−05, 2.5E−05, 0 μM
[4] = Compound A 0.000316 μM, LNP-1 0.0025, 0.00079, 0.00025, 7.9E−05, 2.5E−05, 0 μM
[5] = Compound A 0.001 μM, LNP-1 0.0025, 0.00079, 0.00025, 7.9E−05, 2.5E−05, 0 μM
[6] = Compound A 0.00316 μM, LNP-1 0.0025, 0.00079, 0.00025, 7.9E−05, 2.5E−05, 0 μM
[7] = Compound A 0.1 μM, LNP-1 0.0025, 0.00079, 0.00025, 7.9E−05, 2.5E−05, 0 μM
[8] = Compound A 1.0E−05 μM, LNP-1 0.0025, 0.00079, 0.00025, 7.9E−05, 2.5E−05, 0 μM
[9] = Compound A 1.0E−05 μM, LNP-2 0.0025, 0.00079, 0.00025, 7.9E−05, 2.5E−05, 0 μM
[10] = Compound A 1.00E−06 μM, LNP-1 0.0025, 0.00079, 0.00025, 7.9E−05, 2.5E−05, 0 μM
[11] = Compound A 1.00E−06 μM, LNP-2 0.0025, 0.00079, 0.00025, 7.9E−05, 2.5E−05, 0 μM
[12] = Compound A 3.16E−06 μM, LNP-1 0.0025, 0.00079, 0.00025, 7.9E−05, 2.5E−05, 0 μM
[13] = Compound A 3.16E−06 μM, LNP-2 0.0025, 0.00079, 0.00025, 7.9E−05, 2.5E−05, 0 μM
[14] = Compound A 3.17E−05 μM, LNP-1 0.0025, 0.00079, 0.00025, 7.9E−05, 2.5E−05, 0 μM
[15] = Compound A 3.17E−05 μM, LNP-2 0.0025, 0.00079, 0.00025, 7.9E−05, 2.5E−05, 0 μM

In the case of COCCCOc1cc2c(nc1OC)-c1cc(=O)c(C(=O)O)cn1[C@H](C(C)C)C2 [Compound A], the “Additive % Inhibition (HBsAg) versus negative control” value (shortened to “Additive % Inhibition”) (HBsAg [1]; [3]) was 47.52%, the “Avg % Inhibition (HBsAg) versus negative control” value (“Avg % Inhibition” below) (HBsAg [1]; [3]) was 47.52% and the “Additive % Inhibition” value (HBsAg [1]; Compound A 0.0001 μM, LNP-2 0.0025, 0.00079, 0.00025, 7.9E−05, 2.5E−05, 0 μM) was 48.07%. The “Avg % Inhibition” value (HBsAg [1]; Compound A 0.0001 μM, rows r14-r19 = LNP-2 0.0025, 0.00079, 0.00025, 7.9E−05, 2.5E−05, 0 μM) was 48.07%, the “Additive % Inhibition” value (HBsAg [1]; [4]) was 66.21% and the “Avg % Inhibition” value (HBsAg [1]; [4]) was 66.21%. The “Additive % Inhibition” value (HBsAg [1]; Compound A 0.000316 μM, LNP-2 0.0025, 0.00079, 0.00025, 7.9E−05, 2.5E−05, 0 μM) was 74.6%, the “Avg % Inhibition” value (HBsAg [1]; Compound A 0.000316 μM, rows r14-r19 = LNP-2 0.0025, 0.00079, 0.00025, 7.9E−05, 2.5E−05, 0 μM) was 74.6% and the “Additive % Inhibition” value (HBsAg [1]; [5]) was 84.38%. The “Avg % Inhibition” value (HBsAg [1]; [5]) was 84.38%, the “Additive % Inhibition” value (HBsAg [1]; Compound A 0.001 μM, LNP-2 0.0025, 0.00079, 0.00025, 7.9E−05, 2.5E−05, 0 μM) was 87.41% and the “Avg % Inhibition” value (HBsAg [1]; Compound A 0.001 μM, rows r14-r19 = LNP-2 0.0025, 0.00079, 0.00025, 7.9E−05, 2.5E−05, 0 μM) was 87.41%. The “Additive % Inhibition” value (HBsAg [1]; [6]) was 90.37%, the “Avg % Inhibition” value (HBsAg [1]; [6]) was 90.37% and the “Additive % Inhibition” value (HBsAg [1]; Compound A 0.00316 μM, LNP-2 0.0025, 0.00079, 0.00025, 7.9E−05, 2.5E−05, 0 μM) was 92.04%. For the same compound, the “Avg % Inhibition” value (HBsAg [1]; Compound A 0.00316 μM, rows r14-r19 = LNP-2 0.0025, 0.00079, 0.00025, 7.9E−05, 2.5E−05, 0 μM) was 92.04%, the “Additive % Inhibition” value (HBsAg [1]; [7]) was 92.38% and the “Avg % Inhibition” value (HBsAg [1]; [7]) was 92.38%. For the same compound, the “Additive % Inhibition” value (HBsAg [1]; Compound A 0.1 μM, LNP-2 0.0025, 0.00079, 0.00025, 7.9E−05, 2.5E−05, 0 μM) was 93.74%, the “Avg % Inhibition” value (HBsAg [1]; Compound A 0.1 μM, rows r14-r19 = LNP-2 0.0025, 0.00079, 0.00025, 7.9E−05, 2.5E−05, 0 μM) was 93.74% and the “Additive % Inhibition” value (HBsAg [1]; [8]) was 16.81%. For the same compound, the “Avg % Inhibition” value (HBsAg [1]; [8]) was 16.81%, the “Additive % Inhibition” value (HBsAg [1]; [9]) was 27.46% and the “Avg % Inhibition” value (HBsAg [1]; [9]) was 27.46%. For the same compound, the “Additive % Inhibition” value (HBsAg [1]; [10]) was 17.73%, the “Avg % Inhibition” value (HBsAg [1]; [10]) was 17.73% and the “Additive % Inhibition” value (HBsAg [1]; [11]) was 16%. For the same compound, the “Avg % Inhibition” value (HBsAg [1]; [11]) was 16%, the “Additive % Inhibition” value (HBsAg [1]; [12]) was 8.39% and the “Avg % Inhibition” value (HBsAg [1]; [12]) was 8.39%. The “Additive % Inhibition” value (HBsAg [1]; [13]) was 20.62%, the “Avg % Inhibition” value (HBsAg [1]; [13]) was 20.62% and the “Additive % Inhibition” value (HBsAg [1]; [14]) was 23.55%. The “Avg % Inhibition” value (HBsAg [1]; [14]) was 23.55%, the “Additive % Inhibition” value (HBsAg [1]; [15]) was 34.41% and the “Avg % Inhibition” value (HBsAg [1]; [15]) was 34.41%. It also gave a pEC50 (HBsAg [1]; HepG2.2.15 cell culture, HBsAg quantitation by CLIA, read-out: 1st Inhibitor EC50) of 9.00.
With CCOC(=O)c1cn2c(cc1=O)-c1nc(OC)c(OCCCOC)cc1CC2(CC)CC [Example 161, Ethyl 6,6-diethyl-2-methoxy-3-(3-methoxypropoxy)-10-oxo-5,10-dihydro-6H-pyrido[1,2-h][1,7]naphthyridine-9-carboxylate] the EC50 (HBsAg [2]) was 0.1 µM.
CCC1(CC)Cc2cc(OCCCOC)c(OC)nc2-c2cc(=O)c(C(=O)O)cn21 [Example 162, 6,6-Diethyl-2-methoxy-3-(3-methoxypropoxy)-10-oxo-5,10-dihydro-6H-pyrido[1,2-h][1,7]naphthyridine-9-carboxylic acid] gave an EC50 (HBsAg [2]) of 0.014 µM.
In the case of CCC1(C(C)C)Cc2cc(OCCCOC)c(OC)nc2-c2cc(=O)c(C(=O)O)cn21 (stereo not drawn) [Example 163, 6-Ethyl-6-isopropyl-2-methoxy-3-(3-methoxypropoxy)-10-oxo-5,10-dihydro-6H-pyrido[1,2-h][1,7]naphthyridine-9-carboxylic acid], the EC50 (HBsAg [2]) was 0.13 µM.
Work on CC(C)[C@@H]1Cc2cc(O)c(O)nc2-c2cc(=O)c(C(=O)O)cn21 [Example 164, (6S)-2,3-Dihydroxy-6-isopropyl-10-oxo-5H,6H-pyrido[1,2-h]1,7-naphthyridine-9-carboxylic acid] yielded an EC50 (HBsAg [2]) of 10 µM.
COc1cc2c(n(C)c1=O)-c1cc(=O)c(C(=O)O)cn1[C@H](C(C)C)C2 [Example 165, (S)-6-Isopropyl-3-methoxy-1-methyl-2,10-dioxo-2,5,6,10-tetrahydro-1H-pyrido[1,2-h][1,7]naphthyridine-9-carboxylic acid] showed an EC50 (HBsAg [2]) of 4.3 µM.
Compound COCCCOc1cc2c(nc1OC)-c1cc(=O)c(C(=O)O)cn1[C@H](C(C)C)CC2 [Example 168, (S)-7-Isopropyl-2-methoxy-3-(3-methoxypropoxy)-11-oxo-5,6,7,11-tetrahydrodipyrido[1,2-a:2′,3′-c]azepine-10-carboxylic acid] has an EC50 (HBsAg [2]) of 0.071 µM.
Work on CC(C)[C@@H]1CCc2cc3c(nc2-c2cc(=O)c(C(=O)O)cn21)OCCCO3 [Example 169, (S)-6-Isopropyl-2-oxo-2,6,7,8,12,13-hexahydro-111-[1,4]dioxepino[2′,3′:5,6]pyrido[2,3-c]pyrido[1,2-a]azepine-3-carboxylic acid] yielded an EC50 (HBsAg [2]) of 2.2 µM.
CC(C)[C@@H]1CCc2cc3c(nc2-c2cc(=O)c(C(=O)O)cn21)OCCO3 [Example 170, (S)-6-Isopropyl-2-oxo-2,6,7,8,11,12-hexahydro-[1,4]dioxino[2′,3′:5,6]pyrido[2,3-c]pyrido[1,2-a]azepine-3-carboxylic acid e] was tested, and the EC50 (HBsAg [2]) was 5 µM.
COCCCOc1cc2c(nc1OC)-c1cc(=O)c(C(=O)O)cn1C1(CCC1)C2 [Example 171, 2′-Methoxy-3′-(3-methoxypropoxy)-10′-oxo-5′,10′-dihydrospiro[cyclobutane-1,6′-pyrido[1,2-h][1,7]naphthyridine]-9′-carboxylic acid] was tested, and the EC50 (HBsAg [2]) was 0.018 µM.
Work on COc1ccc2c(n1)-c1cc(=O)c(C(=O)O)cn1[C@@H]2C(C)C [Example 172, (R)-5-Isopropyl-2-methoxy-9-oxo-5,9-dihydropyrido[2,3-a]indolizine-8-carboxylic acid] yielded an EC50 (HBsAg [2]) of 0.82 µM.
Compound CCOC(=O)c1cn2c(cc1=O)-c1nc(OC)ccc1[C@H]2C(C)C [Example 173, (R)-ethyl-5-isopropyl-2-methoxy-9-oxo-5,9-dihydropyrido[2,3-a]indolizine-8-carboxylate] has an EC50 (HBsAg [2]) of 8.6 µM.
